Test results taken from paper PMC7339578, “Multiple circulating alkaloids and saponins from intravenous Kang-Ai injection inhibit human cytochrome P450 and UDP-glucuronosyltransferase isozymes: potential drug–drug interactions” (Chinese Medicine, 2020).
Like-named read-outs stand apart in the source and are kept apart here.

Columns and labels:
[1] = Plasma pharmacokinetics in rats after a 30-min intravenous infusion of Kang-Ai injection; format: in vivo, Sprague–Dawley rats
Method: Specific pathogen free (SPF) grade male Sprague–Dawley rats (250 ± 20) g were provided by the Experimental Animal Center of Zhengzhou University (Zhengzhou, China). These rats were kept in a designated animal room at constant temperature (22 ± 2) °C and humidity (50 ± 20) % with 12 h of light/dark per day and free access to water and food. All protocols of animal experiments were approved in accordance with the Regulations of Experimental Animal Administration issued by the Ethics Review Committee for Animal Experimentation of Jinan University (Ethical Review NO. 20190301010). Prior to the experiments, the rats were fasted for 12 h but with free access to water. After study use, the rats were euthanized with CO2 gas.
The rats in this study all received a single 30-min intravenous infusion of Kang-Ai injection via the tail veins using TYD01-02 infusion pumps (Lead Fluid, Baoding, China). The dose was derived from the label daily dose of Kang-Ai injection (60 mL/person, once daily) according to dose normalization by body surface area. For plasma pharmacokinetic studies, the rats were randomly received a single intravenous 30 min-bolus dose at 6 mL/kg. Blood samples (100 μL) were collected from the rats’ external jugular veins into heparinized polypropylene tubes at 5, 15, 30, 45 min, and 1, 1.5, 2, 3, 4, 6, 8, 12 h. After gently shaking for 10 s, the blood samples were centrifuged at 13000 g for 10 min to yield plasma samples, which were kept frozen at − 80 °C until analysis.
(§1) Pharmacokinetic parameters were estimated by non-compartmental analysis using WinNonlin 6.3 software (Pharsight, NC, US). Data are presented as the mean ± SD (n = 3). The area under the concentration–time curve up to the last measured point in time (AUC0-t) was calculated using the trapezoidal rule. The total plasma clearance (CLtot, p) was calculated by dividing the compound dose by the AUC0-∞, and the distribution volume at steady state (VSS) was estimated by multiplying the CLtot, p by the mean residence time (MRT). The renal excretory clearance (CLR) and hepatobiliary (CLB) was determined by dividing the cumulative amount excreted into urine (Cum.Ae-U) and bile (Cum.Ae-B) by the plasma AUC0-∞, respectively. The fractions of dose excreted into urine (fe-U) and the fractions of dose excreted into bile (fe-B) were established using the relationship Cum.Ae-U/Dose and Cum.Ae-B/Dose, respectively. Mean differences between treatment and control groups were analyzed by two-tailed unpaired Student’s t test by Graphpad Prism V5 software (SanDiego, CA). The level of significance was set at p < 0.05 (∗), p < 0.01 (∗∗) or p < 0.001 (∗∗∗).

[2] = Urinary (renal) excretion in rats after a 30-min infusion of Kang-Ai injection; format: in vivo, Sprague–Dawley rats
Method: (§2) For urine sampling, the rats were housed singly in metabolic cages. And then, the urine samples were collected at 0–4, 4–8 and 8–12 h after starting infusion and were weighed. Likewise, bile samples were also collected at 0–3, 3–6, 6–9 and 9–12 h after starting infusion and were weighed. The urine and bile collection tubes were all frozen at − 80 °C.
as §1

[3] = Stability tests of analytes in rat plasma QC samples; format: in vitro ADME; settings: rat plasma
Method: […] The dilution integrity was investigated by analyzing six replicate samples with each analyte, and each analyte were diluted 10-fold with blank rat matrix. Furthermore, the diluted samples were analyzed using freshly prepared calibration curve to calculate RE and RSD, which should be no more than ± 15% as criterion.

[4] = Protein binding assay (equilibrium dialysis); format: in vitro ADME, rat
Method: Binding of circulating alkaloids and saponins to rat plasma was measured by equilibrium dialysis using Spectra/Por 2 dialysis membranes (molecular weight cutoff, 12–14 kDa; Rancho Dominguez, CA, USA) as described. After equilibrating for 24 h at 55 rpm and 37 °C, the dialysate and the plasma were sampled for analysis. […] The concentrations of tested matrine, oxysophocarpine and oxymatrine were 2 μmol/L, while those of astragaloside IV, III, and ginsenosides Rh1, Rg2, Rg1, Rf, Re, Rd, Rc, Rb1, Rb2, notoginsenosides R1, R2, were 4 μmol/L. The unbound fraction (fu-plasma) in rat plasma was calculated as follow: fu-plasma = Cd/Cp × 100%, where the Cd and Cp values were the concentrations of each analyte in the dialysate sample and in the post-dialysis plasma sample, respectively.

[5] = Biliary (hepatobiliary) excretion in rats after a 30-min infusion of Kang-Ai injection; format: in vivo, Sprague–Dawley rats
Method: as §2, §1

[6] = rat urine 0–12 h, Kang-Ai injection 6 mL/kg iv
[7] = rat plasma, 30-min iv infusion of Kang-Ai injection 6 mL/kg
[8] = rat plasma, 30-min iv infusion of Kang-Ai injection 6 mL/kg, read-out: Cmax

SMILES | fe-U,0–12h (fraction of dose excreted into urine) [2, 6] | At -80 °C for 48 h, Mean±SD ([3]; nominal conc. 20 nM) | At -80 °C for 48 h, RE ([3]; nominal conc. 20 nM) | Extracted samples at 8 °C for 18 h, Mean±SD ([3]; nominal conc. 20 nM) | Extracted samples at 8 °C for 18 h, RE ([3]; nominal conc. 20 nM) | Short-term stability at room temperature for 6 h, Mean±SD ([3]; nominal conc. 20 nM) | Short-term stability at room temperature for 6 h, RE ([3]; nominal conc. 20 nM) | Three freeze-thaw cycles (-80 °C ↔ 23 °C), Mean±SD ([3]; nominal conc. 20 nM) | Three freeze-thaw cycles (-80 °C ↔ 23 °C), RE ([3]; nominal conc. 20 nM) | At -80 °C for 48 h, Mean±SD ([3]; nominal conc. 100 nM) | At -80 °C for 48 h, RE ([3]; nominal conc. 100 nM) | Extracted samples at 8 °C for 18 h, Mean±SD ([3]; nominal conc. 100 nM) | Extracted samples at 8 °C for 18 h, RE ([3]; nominal conc. 100 nM) | Short-term stability at room temperature for 6 h, Mean±SD ([3]; nominal conc. 100 nM) | Short-term stability at room temperature for 6 h, RE ([3]; nominal conc. 100 nM) | Three freeze-thaw cycles (-80 °C ↔ 23 °C), Mean±SD ([3]; nominal conc. 100 nM) | Three freeze-thaw cycles (-80 °C ↔ 23 °C), RE ([3]; nominal conc. 100 nM) | At -80 °C for 48 h, Mean±SD ([3]; nominal conc. 400 nM) | At -80 °C for 48 h, RE ([3]; nominal conc. 400 nM) | Extracted samples at 8 °C for 18 h, Mean±SD ([3]; nominal conc. 400 nM) | further results
CC(C)=CCC[C@](C)(O[C@@H]1O[C@H](CO[C@@H]2OC[C@H](O)[C@H](O)[C@H]2O)[C@@H](O)[C@H](O)[C@H]1O)[C@H]1CC[C@]2(C)[C@@H]1[C@H](O)C[C@@H]1[C@@]3(C)CC[C@H](O[C@@H]4O[C@H](CO)[C@@H](O)[C@H](O)[C@H]4O[C@@H]4O[C@H](CO)[C@@H](O)[C@H](O)[C@H]4O)C(C)(C)[C@@H]3CC[C@]12C [Compound D4, Ginsenoside Rb2] | 27.80 ± 4.47% | 20.39 ± 1.54 nM | -6.96% | 19.58 ± 2.21 nM | -12.48% | 20.28 ± 1.99 nM | 10.37% | 20.89 ± 1.50 nM | 11.32% | 95.34 ± 8.02 nM | -12.47% | 96.04 ± 12.11 nM | -10.99% | 88.84 ± 2.61 nM | -13.48% | 104.61 ± 9.20 nM | 10.55% | 423.10 ± 46.59 nM | 12.64% | 434.41 ± 11.65 nM | clearance ([1]; male, Sprague-Dawley, plasma, rat, 30-min iv infusion of Kang-Ai injection 6 mL/kg, Table 1 unit, read-out: CLtot, p (converted)): 0.13 mL/min; Vd ([1]; male, Sprague-Dawley, plasma, rat, 30-min iv infusion of Kang-Ai injection 6 mL/kg, Table 1 unit, read-out: VSS): 0.0396 ± 0.0073 L; Cmax ([1]; male, Sprague-Dawley, rat plasma, 30-min iv infusion of Kang-Ai injection 6 mL/kg, read-out: Cmax): 301 ± 34.2 nM; half-life ([1]; male, Sprague-Dawley, rat plasma, 30-min iv infusion of Kang-Ai injection 6 mL/kg, read-out: t1/2 (converted)): 4.12 ± 0.83 h; CL renal ([2]; male, Sprague-Dawley, urine and plasma, rat, Kang-Ai injection 6 mL/kg iv, read-out: CLR (renal excretory clearance) (converted)): 0.0357 mL/min; Extracted samples at 8 °C for 18 h, RE ([3]; nominal conc. 400 nM): 11.01%; Short-term stability at room temperature for 6 h, Mean±SD ([3]; nominal conc. 400 nM): 352.24 ± 2.93 nM; Short-term stability at room temperature for 6 h, RE ([3]; nominal conc. 400 nM): -12.50%; Three freeze-thaw cycles (-80 °C ↔ 23 °C), Mean±SD ([3]; nominal conc. 400 nM): 440.44 ± 2.62 nM; Three freeze-thaw cycles (-80 °C ↔ 23 °C), RE ([3]; nominal conc. 400 nM): 13.72%; fraction unbound at 24 h ([4]; rat plasma, equilibrium dialysis 24 h, 37 °C, 2 μmol/L alkaloids, 4 μmol/L saponins, read-out: fu-plasma (unbound fraction)): 0.0067 ± 0.0005
CC(C)(O)[C@@H]1CC[C@](C)([C@H]2[C@@H](O)C[C@@]3(C)[C@@H]4C[C@H](O)[C@H]5C(C)(C)[C@@H](O[C@@H]6OC[C@@H](O)[C@H](O)[C@H]6O[C@@H]6O[C@H](CO)[C@@H](O)[C@H](O)[C@H]6O)CC[C@@]56C[C@@]46CC[C@]23C)O1 [Compound B3, Astragaloside III] | 2.60 ± 0.69% | 19.85 ± 0.45 nM | -3.31% | 17.98 ± 1.29 nM | -14.29% | 19.47 ± 1.70 nM | -12.31% | 19.24 ± 0.59 nM | -6.46% | 89.68 ± 4.10 nM | -13.24% | 99.17 ± 12.67 nM | 13.54% | 91.15 ± 3.72 nM | -13.15% | 103.49 ± 8.05 nM | 9.29% | 431.79 ± 15.31 nM | 12.29% | 400.78 ± 32.83 nM | AUC0–12h [1, 7]: 0.03429 ± 0.00522 µM·h; t1/2 [1, 7]: 0.33 ± 0.13 h; Cmax [1, 8]: 54.8 ± 10.2 nM; VSS (Vd) ([1]; rat, Kang-Ai injection 6 mL/kg iv): < 0.1 L/kg; Extracted samples at 8 °C for 18 h, RE ([3]; nominal conc. 400 nM): -8.93%; Short-term stability at room temperature for 6 h, Mean±SD ([3]; nominal conc. 400 nM): 348.69 ± 3.47 nM; Short-term stability at room temperature for 6 h, RE ([3]; nominal conc. 400 nM): -13.71%; Three freeze-thaw cycles (-80 °C ↔ 23 °C), Mean±SD ([3]; nominal conc. 400 nM): 387.44 ± 17.00 nM; Three freeze-thaw cycles (-80 °C ↔ 23 °C), RE ([3]; nominal conc. 400 nM): -6.84%; bound in rat plasma ([4]; rat plasma, equilibrium dialysis): ~90%; fu-plasma (unbound fraction) ([4]; rat plasma, equilibrium dialysis 24 h, 37 °C, 2 μmol/L alkaloids, 4 μmol/L saponins): 11.04 ± 0.86%
O=c1cccc2n1C[C@H]1C[C@@H]2CN2CC[C@H](O)C[C@H]12 [Compound A5, Baptifoline] | 37.56 ± 15.13% | – | – | – | – | – | – | – | – | – | – | – | – | – | – | – | – | – | – | – | t1/2 [1, 7]: 2.15 ± 0.50 h; Cmax [1, 8]: 264 ± 47.2 nM; fe-B,0–12h (fraction of dose excreted into bile) ([5]; rat bile 0–12 h, Kang-Ai injection 6 mL/kg iv): 10.30 ± 1.11%
CC(C)=CCC[C@](C)(O)[C@H]1CC[C@]2(C)[C@@H]1[C@H](O)C[C@@H]1[C@@]3(C)CC[C@H](O)C(C)(C)[C@@H]3[C@@H](O[C@@H]3O[C@H](CO)[C@@H](O)[C@H](O)[C@H]3O[C@@H]3OC[C@@H](O)[C@H](O)[C@H]3O)C[C@]12C [Compound C3, Notoginsenoside R2] | – | – | – | – | – | – | – | – | – | – | – | – | – | – | – | – | – | – | – | – | AUC0–12h ([1]; rat, in vivo, iv): 0.08557 ± 0.01054 µM·h; CLtot, p ([1]; rat, in vivo, iv): 255.80 ± 34.97 mL/h; Cmax ([1]; rat, in vivo, iv): 128 ± 13.3 nM; VSS ([1]; rat, in vivo, iv): 99.30 ± 20.42 mL; t1/2 ([1]; rat, in vivo, iv): 0.29 ± 0.12 h; CLB (hepatobiliary clearance) ([5]; rat, in vivo, iv): 59.94 ± 6.71 mL/h; fe-B,0–12h (fraction of dose excreted into bile) ([5]; rat, in vivo, iv): 23.55 ± 1.97%; CLR (renal excretory clearance) ([2]; rat, in vivo, iv): 25.62 ± 3.48 mL/h; fe-U,0–12h (fraction of dose excreted into urine) ([2]; rat, in vivo, iv): 10.27 ± 2.49%; fu-plasma (unbound fraction) ([4]; rat, plasma): 35.24 ± 2.85%
